Reference: patent US20250282799A1, “SUBSTITUTED PYRIDO[4,3-d]PYRIMIDINES AS KRAS MODULATORS” (Alterome Therapeutics, Inc., priority 2023, published 2025)

tested on: KRAS G12V dependent lung adenocarcinoma cell line, NCI-H441; test: Cellular pERK (Thr202/Tyr204) FRET/HTRF assay; type: cell-based; conditions: Homo sapiens, NCI-H441, cellular pERK (Thr202/Tyr204) HTRF, NCI-H441 cells
Method in brief: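 IC50 reflects inhibition of ERK1/2 Thr202/Tyr204 phosphorylation, quantified by HTRF after a 1 hr treatment of KRAS G12V-driven NCI-H441 cells. DMSO served as negative control.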

| IC50 | SMILES |
| --- | --- |
| < 50 nM | C#Cc1c(F)ccc2cc(N)cc(-c3ncc4c(N5CCOC[C@H]6[C@H](F)[C@H]65)nc(OC[C@]56C[C@H](C)CN5CCC65CC5)nc4c3F)c12 (single isomer, unassigned) [Example 251] |
| < 50 nM | [2H]C([2H])(Oc1nc(N2CCOC[C@H]3[C@H](F)[C@H]32)c2cnc(-c3cccc4ccc(Cl)c(C#C)c34)c(F)c2n1)[C@@]12CCCN1C[C@H](F)C2 [Example 318, (1S,7S,8S)-2-(7-(7-chloro-8-ethynylnaphthalen-1-yl)-8-fluoro-2-(((2R,7aS)-2-fluorotetrahydro-1H-pyrrolizin-7a(5H)-yl)methoxy-d2)pyrido[4,3-d]pyrimidin-4-yl)-8-fluoro-5-oxa-2-azabicyclo[5.1.0]octane] |
| < 50 nM | C#Cc1c(F)ccc2cc(O)cc(-c3ncc4c(N5CCOC[C@H]6[C@H](F)[C@H]65)nc(OC[C@H]5CCCN5C)nc4c3F)c12 [Example 284, 5-ethynyl-6-fluoro-4-(8-fluoro-4-((1S,7S,8S)-8-fluoro-5-oxa-2-azabicyclo[5.1.0]octan-2-yl)-2-(((R)-1-methylpyrrolidin-2-yl)methoxy)pyrido[4,3-d]pyrimidin-7-yl)naphthalen-2-ol] |
| < 50 nM | C#Cc1c(F)ccc2cc(N)cc(-c3ncc4c(N5CCOC[C@H]6[C@H](Cl)[C@H]65)nc(OC[C@@H]5CCCN5C)nc4c3F)c12 [Example 302, 4-(4-((1S,7S,8S)-8-chloro-5-oxa-2-azabicyclo[5.1.0]octan-2-yl)-8-fluoro-2-(((S)-1-methylpyrrolidin-2-yl)methoxy)pyrido[4,3-d]pyrimidin-7-yl)-5-ethynyl-6-fluoronaphthalen-2-amine] |
| 50 to 500 nM | C#Cc1c(F)ccc2cc(N)cc(-c3ncc4c(N5CCOC[C@H]6[C@H](F)[C@H]65)nc(OC[C@]56C[C@@H](F)CN5C[C@@H](CN)C6)nc4c3F)c12 [Example 258, 4-(2-(((2R,6R,7aS)-2-(aminomethyl)-6-fluorotetrahydro-1H-pyrrolizin-7a(5H)-yl)methoxy)-8-fluoro-4-((1S,7S,8S)-8-fluoro-5-oxa-2-azabicyclo[5.1.0]octan-2-yl)pyrido[4,3-d]pyrimidin-7-yl)-5-ethynyl-6-fluoronaphthalen-2-amine] |
| < 50 nM | [2H]C([2H])(Oc1nc(N2CCOC[C@H]3[C@H](F)[C@H]32)c2cnc(-c3cccc4ccc(C)c(C#C)c34)c(F)c2n1)[C@@]12CCCN1C[C@H](F)C2 [Example 325, (1S,7S,8S)-2-(7-(8-ethynyl-7-methylnaphthalen-1-yl)-8-fluoro-2-(((2R,7aS)-2-fluorotetrahydro-1H-pyrrolizin-7a(5H)-yl)methoxy-d2)pyrido[4,3-d]pyrimidin-4-yl)-8-fluoro-5-oxa-2-azabicyclo[5.1.0]octane] |

The remaining lines, values behind:

| SMILES | IC50 |
| --- | --- |
| [2H]C([2H])(Oc1nc(N2CCOC[C@H]3[C@H](F)[C@H]32)c2cc(Cl)c(-c3cc(N)c(F)c(C)c3C(F)(F)F)c(F)c2n1)[C@@]12CCCN1C[C@H](F)C2 [Example 190, 5-(6-chloro-8-fluoro-4-((1S,7S,8S)-8-fluoro-5-oxa-2-azabicyclo[5.1.0]octan-2-yl)-2-(((2R,7aS)-2-fluorotetrahydro-1H-pyrrolizin-7a(5H)-yl)methoxy-d2)quinazolin-7-yl)-2-fluoro-3-methyl-4-(trifluoromethyl)aniline] | 50 to 500 nM |
| [2H]C([2H])(F)Oc1c(F)ccc2cc(N)cc(-c3ncc4c(N5CCOC[C@H]6[C@H](F)[C@H]65)nc(OC[C@@]56CCCN5CC(=C)C6)nc4c3F)c12 [Example 189, 6-fluoro-4-(8-fluoro-4-((1S,7S,8S)-8-fluoro-5-oxa-2-azabicyclo[5.1.0]octan-2-yl)-2-(((S)-2-methylenetetrahydro-1H-pyrrolizin-7a(5H)-yl)methoxy)pyrido[4,3-d]pyrimidin-7-yl)-5-(fluoromethoxy-d2)naphthalen-2-amine] | < 50 nM |
| C#Cc1c(F)ccc2cc(N)cc(-c3ncc4c(N5CCOC[C@H]6[C@H](F)[C@H]65)nc(OC[C@@]56CCCN5C[C@H](F)C6)nc4c3F)c12 [Example 212, 5-Ethynyl-6-fluoro-4-(8-fluoro-4-((1S,7S,8S)-8-fluoro-5-oxa-2-azabicyclo[5.1.0]octan-2-yl)-2-(((2R,7aS)-2-fluorotetrahydro-1H-pyrrolizin-7a(5H)-yl)methoxy)pyrido[4,3-d]pyrimidin-7-yl)naphthalen-2-amine] | < 50 nM |

same assay, conditions: Homo sapiens, NCI-H441, cellular pERK HTRF, NCI-H441 (KRAS G12V) cells

| IC50 | SMILES |
| --- | --- |
| < 50 nM | [2H]C([2H])(Oc1nc(N2CCCC[C@H]3[C@H](F)[C@H]32)c2cnc(-c3cc(O)cc4ccc(F)c(C#C)c34)c(C)c2n1)[C@]12CC(=C)CN1CCC21CC1 [Example 462, 5-Ethynyl-6-fluoro-4-(4-((1S,7R,8S)-8-fluoro-2-azabicyclo[5.1.0]octan-2-yl)-8-methyl-2-(((R)-6′-methylenetetrahydrospiro[cyclopropane-1,1′-pyrrolizin]-7a′(5′H)-yl)methoxy-d2)pyrido[4,3-d]pyrimidin-7-yl)naphthalen-2-ol] |
| < 50 nM | [2H]C([2H])(Oc1nc(N2CCOC[C@H]3[C@H](F)[C@H]32)c2cc(C(F)(F)F)c(-c3cccc4sc(N)c(C#N)c34)c(F)c2n1)[C@@]12CCCN1C[C@H](F)C2 (atropisomer, axis not shown; (aS)) [Example 466, 2-amino-4-((S)-8-fluoro-4-((1S,7S,8S)-8-fluoro-5-oxa-2-azabicyclo[5.1.0]octan-2-yl)-2-(((2R,7aS)-2-fluorotetrahydro-1H-pyrrolizin-7a(5H)-yl)methoxy-d2)-6-(trifluoromethyl)quinazolin-7-yl)benzo[b]thiophene-3-carbonitrile] |

same assay, conditions: Homo sapiens, NCI-H441, pERK HTRF, NCI-H441 cells (KRAS G12V)

| IC50 | SMILES |
| --- | --- |
| 50 to 500 nM | [2H]C([2H])(Oc1nc(N2CCO[C@H]3C[C@H]32)c2cnc(-c3cc(N)cc4cc(F)c(F)c(C#C)c34)c(F)c2n1)[C@@]12CCCN1C[C@H](F)C2 [Example 32, 4-(4-((1S,6R)-2-Oxa-5-azabicyclo[4.1.0]heptan-5-yl)-8-fluoro-2-(((2R,7aS)-2-fluorotetrahydro-1H-pyrrolizin-7a(5H)-yl)methoxy-d2)pyrido[4,3-d]pyrimidin-7-yl)-5-ethynyl-6,7-difluoronaphthalen-2-amine] |
| < 50 nM | [2H]C([2H])(Oc1nc(N2CCCO[C@H]3[C@H](F)[C@H]32)c2cnc(-c3cccc4ccc(F)c(C#C)c34)c(F)c2n1)[C@@]12CCCN1C[C@H](F)C2 [Example 75, (1R,7S,8R)-6-(7-(8-Ethynyl-7-fluoronaphthalen-1-yl)-8-fluoro-2-(((2R,7aS)-2-fluorotetrahydro-1H-pyrrolizin-7a(5H)-yl)methoxy-d2)pyrido[4,3-d]pyrimidin-4-yl)-8-fluoro-2-oxa-6-azabicyclo[5.1.0]octane] |
| 50 to 500 nM | [2H]C([2H])(Oc1nc(N2CCOC[C@@H]3[C@H](F)[C@@H]32)c2cnc(-c3cc(N)cc4cc(F)c(F)c(C#C)c34)c(F)c2n1)[C@@]12CCCN1C[C@H](F)C2 [Example 29, 5-Ethynyl-6,7-difluoro-4-(8-fluoro-4-((1R,7R,8S)-8-fluoro-5-oxa-2-azabicyclo[5.1.0]octan-2-yl)-2-(((2R,7aS)-2-fluorotetrahydro-1H-pyrrolizin-7a(5H)-yl)methoxy-d2)pyrido[4,3-d]pyrimidin-7-yl)naphthalen-2-amine] |
| 500 to 10000 nM | C#Cc1c(F)ccc2cc(N)cc(-c3ncc4c(N5CCCC[C@@H]6C[C@@H]65)nc(OC[C@@]56CCCN5C[C@H](F)C6)nc4c3F)c12 [Example 4, 4-(4-((1S,7R)-2-azabicyclo[5.1.0]octan-2-yl)-8-fluoro-2-(((2R,7aS)-2-fluorotetrahydro-1H-pyrrolizin-7a(5H)-yl)methoxy)pyrido[4,3-d]pyrimidin-7-yl)-5-ethynyl-6-fluoronaphthalen-2-amine] |
| 500 to 10000 nM | [2H]C([2H])(Oc1nc(N2CCOC[C@@H]3C[C@@H]32)c2cnc(-c3ccc(F)c4sc(N)c(C#N)c34)c(F)c2n1)[C@@]12CCCN1C[C@H](F)C2 [Example 47, 4-(4-((1S,7R)-5-Oxa-2-azabicyclo[5.1.0]octan-2-yl)-8-fluoro-2-(((2R,7aS)-2-fluorotetrahydro-1H-pyrrolizin-7a(5H)-yl)methoxy-d2)pyrido[4,3-d]pyrimidin-7-yl)-2-amino-7-fluorobenzo[b]thiophene-3-carbonitrile] |

same assay, conditions: cellular pERK HTRF, NCI-H441 (KRAS G12V) cells

| IC50 | SMILES |
| --- | --- |
| < 50 nM | N#Cc1c(N)sc2c(F)ccc(-c3c(C(F)(F)F)cc4c(N5CCOC[C@H]6[C@H](F)[C@H]65)nc(OC[C@@]56CCCN5CC(=C(F)F)C6)nc4c3F)c12 (atropisomer, axis not shown) [Example 439, 2-amino-4-((S)-2-(((S)-2-(difluoromethylene)tetrahydro-1H-pyrrolizin-7a(5H)-yl)methoxy)-8-fluoro-4-((1S,7S,8S)-8-fluoro-5-oxa-2-azabicyclo[5.1.0]octan-2-yl)-6-(trifluoromethyl)quinazolin-7-yl)-7-fluorobenzo[b]thiophene-3-carbonitrile] |
| 500 to 10000 nM | [2H]C([2H])(Oc1nc(N2CCOC[C@H]3[C@H](F)[C@H]32)c2cc(F)c(-c3cc(O)cc4ccc(F)c(C#C)c34)c(C)c2n1)[C@@]12CCCN1C[C@H](F)C2 (atropisomer, axis not shown; (aS)) [Example 467, 5-Ethynyl-6-fluoro-4-((R)-6-fluoro-4-((1S,7S,8S)-8-fluoro-5-oxa-2-azabicyclo[5.1.0]octan-2-yl)-2-(((2R,7aS)-2-fluorotetrahydro-1H-pyrrolizin-7a(5H)-yl)methoxy-d2)-8-methylquinazolin-7-yl)naphthalen-2-ol] |
